Read-outs that look alike come from different tables or passages of the source. Marks after values point to notes of the source that are not given here.
Key:
cisplatin-induced emesis [1] = test: Intravenous palonosetron vs ondansetron in cisplatin-treated dogs; type: in vivo; settings: 0.1 mg/kg intravenous; five-hour period following cisplatin 3.0 mg/kg
Description: (§1) The antiemetic effects of intravenously and orally administered palonosetron were assessed in male and female dogs (sexes combined). Antineoplastic agents employed in these experiments included cisplatin (3 mg/kg)), dacarbazine (30 mg/kg), mechlorethamine (0.4 mg/kg) and actinomycin D (0.15 mg/kg). […] Mean numbers of episodes were computed and the statistical significance of differences between treatment groups were determined with Dunnett's t test. Solutions of palonosetron and comparator drugs (ondansetron and granisetron) were prepared in distilled water. Vehicle control groups received distilled water. The therapeutic effects of intravenously and orally administered palonosetron were compared to those of ondansetron and vehicle in cisplatin-treated dogs.

cisplatin-induced emesis [2] = test: Reversal of cisplatin-induced emesis, intravenous antiemetic one hour after cisplatin; type: in vivo, dogs; settings: for Emetic Episodes (mean ± SD): observed five hours
Description: as §1, with “In a different study, palonosetron and ondansetron were assessed for their relative abilities to reverse cisplatin-induced emesis. In these experiments dogs received intravenous injections” for “The therapeutic effects”, “palonosetron, ondansetron, or vehicle one hour after the intravenous administration” for “intravenously and orally administered palonosetron were compared to those”, “3.0 mg/kg cisplatin. Each animal was observed continuously for five hours following cisplatin administration for the number of emetic episodes.” for “ondansetron and vehicle in cisplatin-treated dogs.”

cisplatin-induced emesis [3] = test: Anti-emetic effect, oral antiemetic one hour before cisplatin; type: in vivo, dogs; settings: for Emetic Episodes (mean ± SD): observed five hours
Description: The antiemetic effects of intravenously and orally administered palonosetron were assessed in male and female dogs (sexes combined). Antineoplastic agents employed in these experiments included cisplatin (3 mg/kg)), dacarbazine (30 mg/kg), mechlorethamine (0.4 mg/kg) and actinomycin D (0.15 mg/kg). […] Mean numbers of episodes were computed and the statistical significance of differences between treatment groups were determined with Dunnett's t test. Solutions of palonosetron and comparator drugs (ondansetron and granisetron) were prepared in distilled water. Vehicle control groups received distilled water. The observation of potency differential was further seen during an experiment in which oral dose-response relationships of palonosetron and ondansetron were compared in cisplatin-treated dogs. Palonosetron, ondansetron or vehicle control were administered by the oral route one hour prior to the administration of cisplatin. Each animal was observed continuously for five hours following cisplatin administration for the number of emetic episodes.

cisplatin-induced emesis [4] = test: Duration of action in cisplatin-treated dogs; type: in vivo
Description: Mean numbers of episodes were computed and the statistical significance of differences between treatment groups were determined with Dunnett's t test. Solutions of palonosetron and comparator drugs (ondansetron and granisetron) were prepared in distilled water. Vehicle control groups received distilled water.

[5] = Systemic exposure of palonosetron (plasma, HPLC-radioimmunoassay); type: in vivo, dogs; settings: 100 to 1000 μg/kg
cisplatin-induced emesis [6] = test: Systemic exposure study: effects on cisplatin-induced emesis; type: in vivo, dogs; settings: 30 minutes prior to cisplatin, oral, table title says intravenous
Description: An experiment was conducted to study the relationship between plasma concentration of palonosetron and protection of dogs against cisplatin-induced emesis. Groups of dogs received oral doses of palonosetron (0, 100, 316, or 1000 μg/kg) or vehicle control 30 minutes prior to the injection of cisplatin.

[7] = tested on: Dacarbazine-Induced Emesis; test: Antagonism of dacarbazine-induced emesis; type: in vivo, dogs; settings: for Emetic Episodes (mean ± SD): 2 hours prior to dacarbazine 30.0 mg/kg IV, observed 5 hours
[8] = tested on: Actinomycin D-Induced Emesis; test: Antagonism of actinomycin D-induced emesis; type: in vivo, dogs; settings: for Emetic Episodes (mean ± SD): 2 hours prior to actinomycin D 0.15 mg/kg IV, observed 5 hours
[9] = tested on: Mechlorethamine-Induced Emesis; type: in vivo, dogs; settings: for Emetic Episodes (mean ± SD): 2 hours prior to mechlorethamine 0.4 mg/kg IV, observed 5 hours
[10] = in vivo
Description: A randomized, double-blind, multicenter, dose-ranging Phase II trial was performed to identify the dose response relationship among single I.V. doses of palonosetron. Patients receiving highly emetogenic chemotherapy including cyclophosphamide (>1100 mg/m2) and cisplatin (>70 mg/m2), commonly associated with delayed emesis, were assigned to one of five dose groups of a single I.V. administration of palonosetron. Palonosetron was administered alone (without dexamethasone) as a 30 second intravenous injection, 30 minutes prior to chemotherapy administration. The primary endpoint was 24-hour complete responses (no emesis, no rescue) (CR). Secondary endpoints included complete control (no emesis, no rescue, mild nausea) (CC) and 5-day CR.
161 patients (32 women, 129 men) participated.

[11] = intravenous antiemetic 0.001 mg/kg
[12] = intravenous antiemetic 0.003 mg/kg
[13] = intravenous antiemetic 0.01 mg/kg
[14] = intravenous antiemetic 0.03 mg/kg
[15] = intravenous or oral route, stated for all three antineoplastic agents

Cl.O=C1c2cccc3c2[C@H](CCC3)CN1[C@@H]1CN2CCC1CC2 [Palonosetron, (3aS)-2,3,3a,4,5,6-Hexahydro-2-[(S)-1-Azabicyclo[2.2.2]oct-3-yl]2,3,3a,4,5,6-hexahydro-1-oxo-1Hbenz[de]isoquinoline hydrochloride]
mean number of emetic episodes (cisplatin-induced emesis [1]): 2.20 | Emetic Episodes (mean ± SD) (cisplatin-induced emesis [2]; intravenous dose 0.3 μg/kg one hour after cisplatin 3.0 mg/kg IV): 13.16 ± 6.11 ^ | Emetic Episodes (mean ± SD) (cisplatin-induced emesis [2]; intravenous dose 1.0 μg/kg one hour after cisplatin 3.0 mg/kg IV): 7.16 ± 4.26^a | Emetic Episodes (mean ± SD) (cisplatin-induced emesis [2]; intravenous dose 3.0 μg/kg one hour after cisplatin 3.0 mg/kg IV): 4.33 ± 4.03^b | Emetic Episodes (mean ± SD) (cisplatin-induced emesis [2]; intravenous dose 10.0 μg/kg one hour after cisplatin 3.0 mg/kg IV): 4.50 ± 5.24^b | Emetic Episodes (mean ± SD) (cisplatin-induced emesis [2]; intravenous dose 30.0 μg/kg one hour after cisplatin 3.0 mg/kg IV): 1.33 ± 1.21^b | Emetic Episodes (mean ± SD) (cisplatin-induced emesis [2]; intravenous dose 100.0 μg/kg one hour after cisplatin 3.0 mg/kg IV): 1.67 ± 1.83^b | Emetic Episodes (mean ± SD) (cisplatin-induced emesis [2]; intravenous dose 300.0 μg/kg one hour after cisplatin 3.0 mg/kg IV): 3.33 ± 3.01^b | statistically minimally effective dose level (cisplatin-induced emesis [2]; intravenous, one hour after cisplatin): 1.0 µg/kg | Emetic Episodes (mean ± SD) (cisplatin-induced emesis [3]; oral dose 0.3 μg/kg one hour before cisplatin): 12.16 ± 1.94 | Emetic Episodes (mean ± SD) (cisplatin-induced emesis [3]; oral dose 1.0 μg/kg one hour before cisplatin): 12.83 ± 4.70 | Emetic Episodes (mean ± SD) (cisplatin-induced emesis [3]; oral dose 3.0 μg/kg one hour before cisplatin): 16.16 ± 5.11 | Emetic Episodes (mean ± SD) (cisplatin-induced emesis [3]; oral dose 10.0 μg/kg one hour before cisplatin): 4.00 ± 3.79^a | Emetic Episodes (mean ± SD) (cisplatin-induced emesis [3]; oral dose 30.0 μg/kg one hour before cisplatin): 2.66 ± 1.75^a | Emetic Episodes (mean ± SD) (cisplatin-induced emesis [3]; oral dose 100.0 μg/kg one hour before cisplatin): 0.00 ± 0.00^a | Emetic Episodes (mean ± SD) (cisplatin-induced emesis [3]; oral dose 300.0 μg/kg one hour before cisplatin): 1.67 ± 2.04^a | minimally effective dose (significant reduction in episodes) (cisplatin-induced emesis [3]; oral, one hour before cisplatin): 10 µg/kg | longest pretreatment time before cisplatin with antiemetic activity (cisplatin-induced emesis [4]; 0.1 mg/kg IV): 10 h | Emetic Episodes (mean ± SD) (cisplatin-induced emesis [4]; 0.1 mg/kg IV, 1 hr pre-cisplatin 3.0 mg/kg IV): 1.33 ± 1.03^b | Emetic Episodes (mean ± SD) (cisplatin-induced emesis [4]; 0.1 mg/kg IV, 2 hr pre-cisplatin 3.0 mg/kg IV): 2.50 ± 2.43^b | Emetic Episodes (mean ± SD) (cisplatin-induced emesis [4]; 0.1 mg/kg IV, 4 hr pre-cisplatin 3.0 mg/kg IV): 0.33 ± 0.52^b | Emetic Episodes (mean ± SD) (cisplatin-induced emesis [4]; 0.1 mg/kg IV, 6 hr pre-cisplatin 3.0 mg/kg IV): 5.83 ± 4.40^b | Emetic Episodes (mean ± SD) (cisplatin-induced emesis [4]; 0.1 mg/kg IV, 8 hr pre-cisplatin 3.0 mg/kg IV): 9.50 ± 5.50^b | Emetic Episodes (mean ± SD) (cisplatin-induced emesis [4]; 0.1 mg/kg IV, 10 hr pre-cisplatin 3.0 mg/kg IV): 9.83 ± 4.79^b | Emetic Episodes (mean ± SD) (cisplatin-induced emesis [4]; 0.1 mg/kg IV, 12 hr pre-cisplatin 3.0 mg/kg IV): 13.17 ± 6.27 | protective effects, pretreatment time prior to cisplatin (cisplatin-induced emesis [4]; earlier experiment, 0.03 mg/kg, compared with ondansetron 0.3 mg/kg IV (as long as seven hours)): similarly effective | dose proportionality of systemic exposure (AUC0-4hr) [5]: approximately dose-proportional | Emetic Episodes (mean ± SD) (cisplatin-induced emesis [6]; palonosetron 100 μg/kg): 1.83 ± 1.60^b | Emetic Episodes (mean ± SD) (cisplatin-induced emesis [6]; palonosetron 316 μg/kg): 4.50 ± 6.83^b | Emetic Episodes (mean ± SD) (cisplatin-induced emesis [6]; palonosetron 1000 μg/kg): 5.67 ± 5.32^b | Emetic Episodes (mean ± SD) [7, 11]: 10.17 ± 2.04 ^ | Emetic Episodes (mean ± SD) [7, 12]: 6.67 ± 4.13^ | Emetic Episodes (mean ± SD) [7, 13]: 1.67 ± 1.37^d | Emetic Episodes (mean ± SD) [7, 14]: 0.83 ± 1.17^d | potency relative to ondansetron [7, 15]: at least 10 times | Emetic Episodes (mean ± SD) ([7]; oral antiemetic 0.003 mg/kg): 12.83 ± 6.68 ^ | Emetic Episodes (mean ± SD) ([7]; oral antiemetic 0.01 mg/kg): 6.83 ± 4.92^d | Emetic Episodes (mean ± SD) ([7]; oral antiemetic 0.03 mg/kg): 0.33 ± 0.52^d | Emetic Episodes (mean ± SD) ([7]; oral antiemetic 0.1 mg/kg): 0.00 ± 0.00^d | Emetic Episodes (mean ± SD) [8, 11]: 10.00 ± 0.54^c | Emetic Episodes (mean ± SD) [8, 12]: 10.83 ± 2.04 ^ | Emetic Episodes (mean ± SD) [8, 13]: 7.17 ± 3.06^d | Emetic Episodes (mean ± SD) [8, 14]: 5.17 ± 4.45^d | potency relative to ondansetron [8, 15]: at least 10 times | Emetic Episodes (mean ± SD) ([8]; oral antiemetic 0.003 mg/kg): 5.83 ± 1.47^d | Emetic Episodes (mean ± SD) ([8]; oral antiemetic 0.01 mg/kg): 6.67 ± 3.83^d | Emetic Episodes (mean ± SD) ([8]; oral antiemetic 0.03 mg/kg): 3.33 ± 4.55^d | Emetic Episodes (mean ± SD) ([8]; oral antiemetic 0.1 mg/kg): 1.00 ± 1.67^d | Emetic Episodes (mean ± SD) [9, 11]: 7.67 ± 5.05 | Emetic Episodes (mean ± SD) [9, 12]: 6.00 ± 4.29 | Emetic Episodes (mean ± SD) [9, 13]: 3.00 ± 3.52^d | Emetic Episodes (mean ± SD) [9, 14]: 0.17 ± 0.41^d | potency relative to ondansetron [9, 15]: at least 10 times | Emetic Episodes (mean ± SD) ([9]; oral antiemetic 0.003 mg/kg): 4.50 ± 3.51^c | Emetic Episodes (mean ± SD) ([9]; oral antiemetic 0.01 mg/kg): 2.83 ± 1.94^d | Emetic Episodes (mean ± SD) ([9]; oral antiemetic 0.03 mg/kg): 0.33 ± 0.82^d | Emetic Episodes (mean ± SD) ([9]; oral antiemetic 0.1 mg/kg): 0.00 ± 0.00^d | adverse events either mild or moderate ([10]; both, human): 83.9% | adverse events not attributed to study medication ([10]; both, human): 86.0% | adverse events related to study medication: abdominal pain ([10]; both, human): 2.5% | adverse events related to study medication: constipation ([10]; both, human): 8.7% | adverse events related to study medication: dizziness ([10]; both, human): 2.5% | adverse events related to study medication: headache ([10]; both, human): 19.3% | serious drug-related events [10]: No serious drug-related events were reported

Source: patent publication US20110178118A1, “PALONOSETRON FOR THE TREATMENT OF CHEMOTHERAPY INDUCED EMESES” (priority 2002, published 2011)
